Earlier results in US8568779B2, “Method for producing coenzyme Q10 particle” (Kaneka Corporation, priority 2007, dated 2013).

Conditions: composition containing reduced coenzyme Q10 versus oxidized coenzyme Q10 alone

**Q.** For `COc1c(O)c(C)c(C/C=C(\C)CC/C=C(\C)CC/C=C(\C)CC/C=C(\C)CC/C=C(\C)CC/C=C(\C)CC/C=C(\C)CC/C=C(\C)CC/C=C(\C)CCC=C(C)C)c(O)c1OC` [reduced coenzyme Q10], which oral absorbability is on record?
**A.** superior to conventional oxidized coenzyme Q10 alone
